Assay results: ChEMBL document CHEMBL4619728, “A chemically stable peptide agonist to neuromedin U receptor type 2” (Bioorg Med Chem, 2020)
Active and inactive are the calls of the source. The rule behind the calls is not given here. Square brackets hold non-standard residues; d marks the D form. Side chains are listed from the residue outwards. Peptide text beside a SMILES is read from it. * marks the point of attachment. Propanoyl(3-cHex) = O=C(CCC1CCCCC1)*; 2Pal = N[C@@H](Cc1ccccn1)C(=O)O; 3Pal = N[C@@H](Cc1cccnc1)C(=O)O; 4Pal = N[C@@H](Cc1ccncc1)C(=O)O; hSer = N[C@@H](CCO)C(=O)O; Api = NC1(C(=O)O)CCNCC1; Dab = NCC[C@H](N)C(=O)O; Dap = NC[C@H](N)C(=O)O

What was measured:
[1] = biological target: T1, Neuromedin-U receptor 1 (Homo sapiens) (UniProt Q9HB89); test: Agonist activity at human NMUR1 expressed in CHO cells at 100 nM by Fluo-4-AM dye based calcium mobilization assay; type: functional, cell-based
T1 sequence (whole entry): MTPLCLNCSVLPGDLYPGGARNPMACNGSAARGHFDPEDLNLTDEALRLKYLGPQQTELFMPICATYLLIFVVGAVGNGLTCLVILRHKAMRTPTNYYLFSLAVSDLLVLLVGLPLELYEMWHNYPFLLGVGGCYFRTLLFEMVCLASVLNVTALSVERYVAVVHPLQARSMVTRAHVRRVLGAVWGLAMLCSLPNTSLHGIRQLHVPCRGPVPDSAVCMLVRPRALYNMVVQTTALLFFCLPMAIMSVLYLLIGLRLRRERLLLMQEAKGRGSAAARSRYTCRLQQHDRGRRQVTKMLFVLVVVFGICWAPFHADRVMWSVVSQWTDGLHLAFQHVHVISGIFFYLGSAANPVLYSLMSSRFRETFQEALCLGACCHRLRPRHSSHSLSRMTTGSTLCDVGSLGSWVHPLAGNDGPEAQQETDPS

Neuromedin-U receptor 2 [2] = biological target: T2, Neuromedin-U receptor 2 (Homo sapiens, UniProt Q9GZQ4); test: Agonist activity at human NMUR2 expressed in CHO cells at 1 nM by Fluo-4-AM dye based calcium mobilization assay; type: functional, cell-based
T2 sequence (Q9GZQ4 whole entry): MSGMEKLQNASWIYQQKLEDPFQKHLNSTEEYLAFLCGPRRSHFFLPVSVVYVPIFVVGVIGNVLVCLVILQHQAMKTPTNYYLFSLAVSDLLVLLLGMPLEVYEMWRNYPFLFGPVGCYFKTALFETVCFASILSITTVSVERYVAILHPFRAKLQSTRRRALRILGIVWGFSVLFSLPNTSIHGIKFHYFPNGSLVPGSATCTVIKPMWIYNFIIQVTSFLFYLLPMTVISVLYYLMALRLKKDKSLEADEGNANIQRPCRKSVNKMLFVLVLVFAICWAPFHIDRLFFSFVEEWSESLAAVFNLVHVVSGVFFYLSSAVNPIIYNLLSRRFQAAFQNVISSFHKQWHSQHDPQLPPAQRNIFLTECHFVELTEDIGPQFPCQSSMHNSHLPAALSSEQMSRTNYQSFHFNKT

[3] = biological target: T1, Neuromedin-U receptor 1 (Homo sapiens); test: Agonist activity at human NMUR1 expressed in CHO cells at 1 nM by Fluo-4-AM dye based calcium mobilization assay; type: functional, cell-based
Neuromedin-U receptor 2 [4] = biological target: T2, Neuromedin-U receptor 2; test: Agonist activity at human NMUR2 expressed in CHO cells at 100 nM by Fluo-4-AM dye based calcium mobilization assay; type: functional, cell-based
[5] = biological target: Neuromedin-U receptor 2 (Mus musculus) (UniProt Q8BZ39); test: Agonist activity at mouse NMUR2 expressed in human HEK293 cells at 10 nM Fluo-4-AM dye based calcium mobilization assay relative to control; type: functional, cell-based
Chain of Neuromedin-U receptor 2 (Mus musculus) (Q8BZ39 whole entry): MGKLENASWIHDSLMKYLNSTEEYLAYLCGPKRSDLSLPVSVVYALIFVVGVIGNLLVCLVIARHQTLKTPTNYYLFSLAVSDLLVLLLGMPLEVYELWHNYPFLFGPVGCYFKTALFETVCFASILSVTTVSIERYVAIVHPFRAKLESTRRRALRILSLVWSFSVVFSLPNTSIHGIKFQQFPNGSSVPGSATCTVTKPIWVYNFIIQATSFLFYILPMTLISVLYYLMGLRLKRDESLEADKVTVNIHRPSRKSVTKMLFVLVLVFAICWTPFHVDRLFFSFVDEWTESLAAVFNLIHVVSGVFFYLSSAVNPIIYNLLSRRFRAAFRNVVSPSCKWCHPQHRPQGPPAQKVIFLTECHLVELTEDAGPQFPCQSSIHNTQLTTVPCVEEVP

[6] = biological target: T1, Neuromedin-U receptor 1 (Homo sapiens); test: Agonist activity at human NMUR1 expressed in CHO cells at 10 nM by Fluo-4-AM dye based calcium mobilization assay; type: functional, cell-based
Neuromedin-U receptor 2 [7] = biological target: T2, Neuromedin-U receptor 2; test: Agonist activity at human NMUR2 expressed in CHO cells at 10 nM by Fluo-4-AM dye based calcium mobilization assay; type: functional, cell-based
[8] = Chemical stability of compound in pH 5.5 citrate-posphate buffer at 50 uM assessed as compound recovery after 72 hrs by spectrometric analysis; type: physicochemical; details: citrate-phosphate buffer, read-out: Drug recovery
[9] = Chemical stability of compound in pH 5.5 citrate buffer at 50 uM assessed as compound recovery after 72 hrs by spectrometric analysis; type: physicochemical; details: read-out: Drug recovery
[10] = Chemical stability of compound in pH 7.4 HEPES buffer at 50 uM assessed as compound recovery after 72 hrs by spectrometric analysis; type: physicochemical; details: read-out: Drug recovery
[11] = Chemical stability of compound in pH 7.4 phosphate buffer at 50 uM assessed as compound recovery after 72 hrs by spectrometric analysis; type: physicochemical; details: read-out: Drug recovery
[12] = Chemical stability of compound in pH 5.5 acetate buffer at 50 uM assessed as compound recovery after 72 hrs by spectrometric analysis; type: physicochemical; details: read-out: Drug recovery
[13] = Chemical stability of compound in MES buffer pH 5.5 at 100 mM assessed as compound recovery after 72 hrs by spectrometric analysis; type: physicochemical; details: read-out: Drug recovery
[14] = Toxicity in ddY mouse assessed as reduction in body weight gain at 20 ug ,ip; details: in vivo
Neuromedin-U receptor 2 [15] = biological target: T2, Neuromedin-U receptor 2; test: Agonist activity at human NMUR2 expressed in CHO cells by Fluo-4-AM dye based calcium mobilization assay; type: functional, cell-based
[16] = Toxicity in ddY mouse assessed as reduction in body weight gain at 25 to 250 ug intranasal administration; details: in vivo, inhaled_or_intranasal
[17] = biological target: Neuromedin-U receptor 2 (Mus musculus) (UniProt Q8BZ39); test: Agonist activity at mouse NMUR2 expressed in human HEK293 cells Fluo-4-AM dye based calcium mobilization assay; type: functional, cell-based

With `CC(C)C[C@H](NC(=O)CCC1CCCCC1)C(=O)N[C@@H](CC(C)C)C(=O)N[C@@H](CO)C(=O)N1CCC[C@H]1C(=O)N[C@@H](CCCNC(=N)N)C(=O)N[C@@H](CC(N)=O)C(N)=O` ({Propanoyl(3-cHex)}-LLSPRN-NH2) the Activity [1] was “Active”, the Activity (Neuromedin-U receptor 2 [2]) was “inactive” and the Activity [3] was “inactive”. The Activity (Neuromedin-U receptor 2 [4]) was “Active”.

Compound `CC(C)C[C@H](NC(=O)CCC1CCCCC1)C(=O)N[C@@H](CC(C)C)C(=O)N[C@@H](Cc1cccnc1)C(=O)N1CCC[C@H]1C(=O)N[C@@H](CCCNC(=N)N)C(=O)N[C@@H](CC(N)=O)C(N)=O` ({Propanoyl(3-cHex)}-LL[3Pal]PRN-NH2) has an Activity [5] of 20 to 40%.

With `CC(C)C[C@H](NC(=O)CCC1CCCCC1)C(=O)N[C@@H](CC(C)C)C(=O)N[C@@H](CS)C(=O)N1CCC[C@H]1C(=O)N[C@@H](CCCNC(=N)N)C(=O)N[C@@H](CC(N)=O)C(N)=O` ({Propanoyl(3-cHex)}-LLCPRN-NH2) the Activity [6] was “inactive” and the Activity (Neuromedin-U receptor 2 [7]) was “inactive”.

In the case of `CC(C)C[C@H](NC(=O)CCC1CCCCC1)C(=O)N[C@@H](CC(C)C)C(=O)N[C@@H](CCO)C(=O)N1CCC[C@H]1C(=O)N[C@@H](CCCNC(=N)N)C(=O)N[C@@H](CC(N)=O)C(N)=O` ({Propanoyl(3-cHex)}-LL[hSer]PRN-NH2), the Activity [6] is reported as “inactive” and the Activity (Neuromedin-U receptor 2 [7]) is reported as “inactive”.

`CC(C)C[C@H](NC(=O)CCC1CCCCC1)C(=O)N[C@@H](CC(C)C)C(=O)N[C@@H](Cc1ccccn1)C(=O)N1CCC[C@H]1C(=O)N[C@@H](CCCNC(=N)N)C(=O)N[C@@H](CC(N)=O)C(N)=O` ({Propanoyl(3-cHex)}-LL[2Pal]PRN-NH2) showed an Activity [5] of 20 to 40%.

In the case of `CC(C)C[C@H](NC(=O)CCC1CCCCC1)C(=O)N[C@@H](CC(C)C)C(=O)N[C@H](C(=O)N1CCC[C@H]1C(=O)N[C@@H](CCCNC(=N)N)C(=O)N[C@@H](CC(N)=O)C(N)=O)[C@@H](C)O`, the Activity [6] is reported as “inactive” and the Activity (Neuromedin-U receptor 2 [7]) is reported as “inactive”.

With `CC(C)C[C@H](NC(=O)CCC1CCCCC1)C(=O)N[C@@H](CC(C)C)C(=O)N[C@@H](CN)C(=O)N1CCC[C@H]1C(=O)N[C@@H](CCCNC(=N)N)C(=O)N[C@@H](CC(N)=O)C(N)=O` ({Propanoyl(3-cHex)}-LL[Dap]PRN-NH2) the remaining at 72 h, 50 µM [8] was 64%, the remaining at 72 h, 50 µM [9] was 81% and the remaining at 72 h, 50 µM [10] was 92%. For the same compound, the remaining at 72 h, 50 µM [11] was 87%, the remaining at 72 h, 50 µM [12] was 89% and the remaining at 72 h [13] was 93%.

In the case of `CC(C)C[C@H](NC(=O)CCC1CCCCC1)C(=O)N[C@@H](CC(C)C)C(=O)N[C@@H](Cc1ccncc1)C(=O)N1CCC[C@H]1C(=O)N[C@@H](CCCNC(=N)N)C(=O)N[C@@H](CC(N)=O)C(N)=O` ({Propanoyl(3-cHex)}-LL[4Pal]PRN-NH2), the Activity [5] is reported as 20 to 40%.

For `CC(C)C[C@H](NC(=O)CCC1CCCCC1)C(=O)N[C@@H](CC(C)C)C(=O)N[C@@H](CCN)C(=O)N1CCC[C@H]1C(=O)N[C@@H](CCCNC(=N)N)C(=O)N[C@@H](CC(N)=O)C(N)=O` ({Propanoyl(3-cHex)}-LL[Dab]PRN-NH2), the Activity [14] was “Toxic”, the remaining at 72 h, 50 µM [9] was 98% and the remaining at 72 h, 50 µM [11] was 95%. For the same compound, the Activity [5] was 100%, the Activity (Neuromedin-U receptor 2 [15]) was “Dose-dependent effect” and the EC50 (Neuromedin-U receptor 2 [15]) was 2.2 nM. The Activity [16] was “Toxic” and the Activity [17] was “Active”.

With `COC[C@H](NC(=O)[C@H](CC(C)C)NC(=O)[C@H](CC(C)C)NC(=O)CCC1CCCCC1)C(=O)N1CCC[C@H]1C(=O)N[C@@H](CCCNC(=N)N)C(=O)N[C@@H](CC(N)=O)C(N)=O` ({Propanoyl(3-cHex)}-LLS(Me)PRN-NH2) the Activity [6] was “inactive” and the Activity (Neuromedin-U receptor 2 [7]) was “inactive”.

In the case of `CC(C)C[C@H](NC(=O)CCC1CCCCC1)C(=O)N[C@@H](CC(C)C)C(=O)N[C@H](C(=O)N1CCC[C@H]1C(=O)N[C@@H](CCCNC(=N)N)C(=O)N[C@@H](CC(N)=O)C(N)=O)[C@H](C)O`, the Activity [6] is reported as “inactive” and the Activity (Neuromedin-U receptor 2 [7]) is reported as “inactive”.

`CC(C)C[C@H](NC(=O)CCC1CCCCC1)C(=O)N[C@@H](CC(C)C)C(=O)NCC[C@H](N)C(=O)N1CCC[C@H]1C(=O)N[C@@H](CCCNC(=N)N)C(=O)N[C@@H](CC(N)=O)C(N)=O` (H-[Dab]([Leu-Leu-Propanoyl(3-cHex)])PRN-NH2) gave an Activity [1] of 6% and an Activity (Neuromedin-U receptor 2 [4]) of 6%.

With `CC(C)C[C@H](NC(=O)CCC1CCCCC1)C(=O)N[C@@H](CC(C)C)C(=O)NC1(C(=O)N2CCC[C@H]2C(=O)N[C@@H](CCCNC(=N)N)C(=O)N[C@@H](CC(N)=O)C(N)=O)CCNCC1` ({Propanoyl(3-cHex)}-LL[Api]PRN-NH2) the Activity [5] was “inactive”.

In the case of `CC(C)C[C@H](NC(=O)CCC1CCCCC1)C(=O)N[C@@H](CC(C)C)C(=O)N[C@@H](CC(N)=O)C(=O)N1CCC[C@H]1C(=O)N[C@@H](CCCNC(=N)N)C(=O)N[C@@H](CC(N)=O)C(N)=O` ({Propanoyl(3-cHex)}-LLNPRN-NH2), the Activity (Neuromedin-U receptor 2 [2]) is reported as “inactive” and the Activity [3] is reported as “inactive”.

With `CC(C)C[C@H](NC(=O)CCC1CCCCC1)C(=O)N[C@@H](CC(C)C)C(=O)N[C@@H](CC(=O)O)C(=O)N1CCC[C@H]1C(=O)N[C@@H](CCCNC(=N)N)C(=O)N[C@@H](CC(N)=O)C(N)=O` ({Propanoyl(3-cHex)}-LLDPRN-NH2) the Activity [1] was “inactive”, the Activity (Neuromedin-U receptor 2 [2]) was “inactive” and the Activity [3] was “inactive”. For the same compound, the Activity (Neuromedin-U receptor 2 [4]) was “inactive”.
